Laboratory results taken from US20230053540A1, “TREATMENT OF LIVER INJURY” (Massachusetts Institute of Technology, priority 2019, published 2023).

System: hepatocytes
Assay: Seq-Well scRNA-Seq of hepatocytes after APAP overdose (signature scores, DEG vs untreated)
Format: in vivo, mouse
Conditions: A6 vs UT

CC(=O)Nc1ccc(O)cc1 [APAP, acetaminophen]
Slc25a10 avg_logFC: −0.2828 | Slc25a10 pct.1: 0.351 | Slc25a47 avg_logFC: 0.4289 | Slc25a51 A6logFC: 0.264 | Slc25a51 avg_logFC: 0.264 | Slc25a51 pct.1: 0.308 | Slc26a1 A6logFC: −0.2817 | Slc26a1 avg_logFC: −0.2817 | Slc26a1 pct.1: 0.329 | Slc30a1 A6logFC: 0.2506 | Slc30a1 avg_logFC: 0.2506 | Slc30a1 pct.1: 0.346 | Slc35d1 A6logFC: 0.3094 | Slc35d1 avg_logFC: 0.3094 | Slc35d1 pct.1: 0.489 | Slc38a3 avg_logFC: −0.4098 | Slc38a3 pct.1: 0.663 | Slc39a14 avg_logFC: 1.013 | Slc40a1 avg_logFC: 0.467 | Slc40a1 pct.1: 0.456 | Slirp A6logFC: −0.3085 | Smoc1 A6logFC: 0.2616 | Smoc1 avg_logFC: 0.2616 | Smoc1 pct.1: 0.368 | Snx10 A6logFC: 0.2856 | Snx10 avg_logFC: 0.2856 | Snx10 pct.1: 0.341 | Sod1 avg_logFC: −0.4393 | Son avg_logFC: 0.5429 | Son pct.1: 0.601 | Sord avg_logFC: −0.3836 | Sord pct.1: 0.754 | Spag9 A6logFC: 0.3188 | Spag9 avg_logFC: 0.3188 | Spag9 pct.1: 0.415 | Spcs1 A6logFC: −0.2629 | Spcs1 avg_logFC: −0.2629 | Spcs1 pct.1: 0.236 | Spp2 avg_logFC: −0.3821 | Spp2 pct.1: 0.334 | Spred1 avg_logFC: 0.3884 | Spred1 pct.1: 0.308 | Sptan1 A6logFC: 0.3127 | Sptan1 avg_logFC: 0.3127 | Sptan1 pct.1: 0.348 | Sptbn1 avg_logFC: 0.4227 | Sptbn1 pct.1: 0.439 | Sqstm1 avg_logFC: 0.7432 | Srd5a1 A6logFC: −0.2773 | Srd5a1 avg_logFC: −0.2773 | Srd5a1 pct.1: 0.308 | Srgn avg_logFC: 0.9341 | Srrm2 A6logFC: 0.3282 | Srrm2 avg_logFC: 0.3282 | Srrm2 pct.1: 0.456 | Srxn1 avg_logFC: 1.878 | Ssr4 avg_logFC: −0.5076 | Ssr4 pct.1: 0.413 | St3gal1 avg_logFC: 0.5287 | St3gal4 A6logFC: 0.275 | St3gal4 avg_logFC: 0.275 | St3gal4 pct.1: 0.368 | St3gal5 avg_logFC: 0.6076 | Stard10 avg_logFC: −0.3383 | Stard10 pct.1: 0.876 | Stat3 avg_logFC: 0.7154 | Stbd1 A6logFC: −0.2732 | Steap4 avg_logFC: 0.4372 | Steap4 pct.1: 0.37 | Stk40 avg_logFC: 0.5364 | Suco A6logFC: 0.251 | Suco avg_logFC: 0.251 | Suco pct.1: 0.26 | Sult1a1 avg_logFC: 0.319 | Sult1a1 pct.1: 0.685 | Supt6 A6logFC: 0.2913 | Supt6 avg_logFC: 0.2913 | Supt6 pct.1: 0.291 | Swi5 A6logFC: −0.2621 | Swi5 avg_logFC: −0.2621 | Swi5 pct.1: 0.341 | Syncrip A6logFC: 0.2748 | Syncrip avg_logFC: 0.2748 | Syncrip pct.1: 0.365 | Tab2 A6logFC: 0.3484 | Tab2 avg_logFC: 0.3484 | Tab2 pct.1: 0.425 | Tacc2 avg_logFC: 0.3293 | Tacc2 pct.1: 0.289 | Tars avg_logFC: 0.4921 | Tars pct.1: 0.666 | Tatdn2 avg_logFC: 0.3733 | Tatdn2 pct.1: 0.334 | Tbc1d15 avg_logFC: 0.4886 | Tbc1d15 pct.1: 0.461 | Tbca A6logFC: −0.2726 | Tbca avg_logFC: −0.2726 | Tbca pct.1: 0.284 | Tcerg1 avg_logFC: 0.3575 | Tcerg1 pct.1: 0.305 | Tfpi2 avg_logFC: −0.3663 | Tfpi2 pct.1: 0.155 | Timm13 avg_logFC: −0.433 | Timm13 pct.1: 0.418 | Tiparp avg_logFC: 0.5456 | Tjp2 avg_logFC: 0.4115 | Tjp2 pct.1: 0.332 | Tln1 A6logFC: 0.321 | Tln1 avg_logFC: 0.321 | Tln1 pct.1: 0.31 | Tm4sf4 avg_logFC: 0.5126 | Tm4sf4 pct.1: 0.484 | Tmed5 avg_logFC: 0.4016 | Tmed5 pct.1: 0.594 | Tmem14c avg_logFC: −0.3685 | Tmem14c pct.1: 0.332 | Tmem37 A6logFC: −0.2822 | Tmem86b A6logFC: −0.2582 | Tmem87b avg_logFC: 0.4344 | Tmem87b pct.1: 0.351 | Tmem147 A6logFC: 0.2838 | Tmem150a A6logFC: −0.2535 | Tmem160 A6logFC: −0.339 | Tmem205 avg_logFC: −0.7747 | Tmem242 A6logFC: −0.2725 | Tmem256 avg_logFC: −0.5185 | Tmem256 pct.1: 0.375 | Tmem258 A6logFC: −0.2769 | Tmprss6 A6logFC: −0.2802 | Tmprss6 avg_logFC: −0.2802 | Tmprss6 pct.1: 0.551 | Tmsb4x avg_logFC: 0.7806 | Tnfrsf1a avg_logFC: 0.5996 | Tnfrsf12a avg_logFC: 1.118 | Tnks2 A6logFC: 0.3176 | Tns1 avg_logFC: 0.4349 | Tns1 pct.1: 0.403 | Tpi1 A6logFC: −0.2616 | Tpi1 avg_logFC: −0.2616 | Tpi1 pct.1: 0.539 | Tpr A6logFC: 0.4409 | Tra2a avg_logFC: 0.7123 | Trf avg_logFC: −0.2619 | Trf pct.1: 0.988 | Trib1 avg_logFC: 0.3317 | Trib1 pct.1: 0.411 | Trip11 A6logFC: 0.3479 | Trip11 avg_logFC: 0.3479 | Trip11 pct.1: 0.341 | Trp53inp1 avg_logFC: 1.008 | Tsc22d1 A6logFC: −0.2997 | Tsc22d2 avg_logFC: 0.3911 | Tsc22d2 pct.1: 0.353 | Tsku avg_logFC: 0.3676 | Tsku pct.1: 0.327 | Tspan31 A6logFC: −0.2959 | Tspan31 avg_logFC: −0.2959 | Tspan31 pct.1: 0.415 | Tspo A6logFC: −0.3157 | Tsr1 avg_logFC: 0.3603 | Tsr1 pct.1: 0.341 | Ttc36 avg_logFC: −0.6606 | Ttr avg_logFC: −0.5306 | Tubb2a avg_logFC: 0.7494 | Tubb6 avg_logFC: 0.5767 | Tyrobp avg_logFC: 0.4666 | Ubb A6logFC: −0.275 | Ubc avg_logFC: −0.6618 | Ubr4 A6logFC: 0.3301 | Ubr4 avg_logFC: 0.3301 | Ubr4 pct.1: 0.411 | Ubr5 A6logFC: 0.3057 | Ubr5 avg_logFC: 0.3057 | Ubr5 pct.1: 0.399 | Ugdh avg_logFC: 0.6331 | Ugt2b5 avg_logFC: −0.6034 | Ugt2b36 avg_logFC: −0.5834 | Ugt3a2 A6logFC: −0.2586 | Ugt3a2 avg_logFC: −0.2586 | Ugt3a2 pct.1: 0.492 | Uhrf1bp1l avg_logFC: 0.4198 | Uhrf1bp1l pct.1: 0.399 | Uox avg_logFC: −0.5531 | Upp2 avg_logFC: −0.6903 | Uqcr10 avg_logFC: −0.4519 | Uqcr10 pct.1: 0.561 | Uqcr11 avg_logFC: −0.6031 | Uqcrb avg_logFC: −0.4084 | Uqcrb pct.1: 0.425 | Uqcrh avg_logFC: −0.4292 | Uqcrh pct.1: 0.589 | Urah avg_logFC: −0.7641 | Usp4 avg_logFC: 0.28 | Usp4 pct.1: 0.439 | Usp7 A6logFC: 0.2873 | Usp7 avg_logFC: 0.2873 | Usp7 pct.1: 0.363 | Usp9x avg_logFC: 0.3184 | Usp9x pct.1: 0.451 | Usp34 A6logFC: 0.2859 | Usp34 avg_logFC: 0.2859 | Usp34 pct.1: 0.37
